Results from the supplement of paper PMC10307832.

What was measured:
XMD8-85 + Luminespib = compound: CN1CCN(CC1)C2=CC(=C(C=C2)NC3=NC=C4C(=N3)N(C5=CC=CC=C5C(=O)N4C)C)OC [XMD8-85] + CCNC(=O)c1noc(-c2cc(C(C)C)c(O)cc2O)c1-c1ccc(CN2CCOCC2)cc1 [Luminespib] (partner 0.01 µM); experiment: relative viability (nuclei count vs DMSO), 5 days (fraction); higher = more cells survive
Outline: (§1)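 For relative viability, nuclei counts in treated wells were divided by those in vehicle wells. Lung cancer cell lines had been pin-tool dosed in 1536-well plates the day after seeding and cultured for 5 days, then fixed and stained in one step (final 0.05% Triton X-100, 1% formaldehyde, 1 ug/ml Hoechst) and imaged at 4×. Doses were one drug alone or a fixed anchor-drug dose plus five library-drug doses (not always all listed) in √10 steps, and values are duplicate-plate medians.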

XMD8-85 + Dasatinib = compound: CN1CCN(CC1)C2=CC(=C(C=C2)NC3=NC=C4C(=N3)N(C5=CC=CC=C5C(=O)N4C)C)OC [XMD8-85] + Cc1nc(Nc2ncc(C(=O)Nc3c(C)cccc3Cl)s2)cc(N2CCN(CCO)CC2)n1 [Dasatinib] (partner 0.075 µM); experiment: as above
Outline: as §1

Cell Line | relative viability (XMD8-85 + Luminespib; first compound 0.08 µM) | relative viability (XMD8-85 + Luminespib; first compound 0.253 µM) | relative viability (XMD8-85 + Luminespib; first compound 0.8 µM) | relative viability (XMD8-85 + Luminespib; first compound 2.53 µM) | relative viability (XMD8-85 + Luminespib; first compound 8 µM) | relative viability (XMD8-85 + Dasatinib; first compound 0.08 µM) | relative viability (XMD8-85 + Dasatinib; first compound 0.253 µM) | relative viability (XMD8-85 + Dasatinib; first compound 0.8 µM) | relative viability (XMD8-85 + Dasatinib; first compound 2.53 µM) | relative viability (XMD8-85 + Dasatinib; first compound 8 µM)
NCI-H2009 | 1.01 | 1.01 | 1.05 | 0.898 | 0.564 | 0.285 | 0.29 | 0.288 | 0.209 | 0.167
NCI-H2023 | 0.406 | 0.751 |  | 0.649 | 0.407 | 0.426 | 0.521 | 0.586 | 0.619 | 0.314
NCI-H2085 | 0.412 | 0.513 | 0.403 | 0.348 | 0.302 | 0.275 | 0.265 | 0.235 | 0.203 | 0.197
NCI-H2087 | 0.182 | 0.167 | 0.159 | 0.118 | 0.175 | 0.953 | 0.802 | 0.959 | 0.79 | 0.472
NCI-H2126 | 0.948 | 1 | 0.917 | 1.05 | 0.891 | 0.601 | 0.625 | 0.613 | 0.562 | 0.417
NCI-H2170 | 0.887 | 0.609 | 0.931 | 0.894 | 0.474 | 0.574 | 0.562 | 0.526 | 0.564 | 0.548
NCI-H2228 | 0.154 | 0.209 | 0.114 | 0.188 | 0.185 | 0.451 | 0.514 | 0.516 | 0.398 | 0.231
NCI-H2342 | 0.649 | 0.719 | 0.74 | 0.809 | 0.887 | 0.296 | 0.316 | 0.32 | 0.32 | 0.331
NCI-H2347 | 0.545 | 0.405 | 0.243 | 0.208 | 0.306 | 0.304 | 0.332 | 0.289 | 0.313 | 0.489
NCI-H2405 | 0.63 | 0.727 | 0.625 | 0.704 | 0.643 | 0.206 | 0.206 | 0.221 | 0.198 | 0.177
NCI-H3122 | 0.117 |  | 0.115 | 0.106 | 0.102 | 0.933 |  | 0.984 | 0.861 | 0.794
PC-3 [JPC-3] | 0.725 | 0.805 | 0.663 | 0.82 | 0.543 | 0.889 | 0.932 | 0.939 | 1.14 | 0.997
PC-14 | 0.14 | 0.167 | 0.179 | 0.154 | 0.134 | 0.229 | 0.271 | 0.275 | 0.249 | 0.115
RERF-LC-KJ | 1.32 | 1.14 | 1.3 | 1.1 | 0.779 | 0.939 | 0.743 | 0.816 | 0.858 | 0.574
SK-LU-1 | 0.193 | 0.207 | 0.207 | 0.191 | 0.165 | 0.135 | 0.183 | 0.208 | 0.172 | 0.179
SK-MES-1 | 0.823 | 0.768 | 0.779 | 0.655 | 0.409 | 0.296 | 0.366 | 0.44 |  | 0.255
SW 900 | 0.164 | 0.195 | 0.175 | 0.165 | 0.152 | 0.615 | 0.608 | 0.641 | 0.549 | 0.417
SW 1573 | 0.276 | 0.189 | 0.183 | 0.172 | 0.175 | 0.466 | 0.364 | 0.393 | 0.499 | 0.343
UMC-11 | 0.972 | 1.01 | 1.08 | 0.941 | 0.671 | 0.418 | 0.437 | 0.556 | 0.512 | 0.335
